# According to patent US20110070320A1, “BIODEGRADABLE THERMORESPONSIVE 3-ARM POLYETHYLENE GLYCOL POLY(LACTIDE-CO-GLYCOLIDE) COPOLYMER FOR GINSENG ADMINISTRATION” (priority 2009, published 2011):
# What was measured:
# Type in all cases: physicochemical
# [1] = Paclitaxel release from copolymer aqueous gel; settings: 37° C.; 20% (w/w) copolymer gel; FIG. 2
# Protocol: Paclitaxel was used as a hydrophobic drug in a drug release study using the copolymer of EXAMPLE 1 in a 20% (w/w) aqueous solution. The drug (4 mg) was added to a 4 ml vial containing 0.2 ml of the polymer solution. At 4° C. the sample vial was sonicated for 15 min and vortexed for 16 h and sonicated for 15 min again to give a slightly cloudy suspension. After filtered through a 0.2 μm syringe filter an aliquot (0.2 ml) of the solution was added to each sample vial. The triplet samples were placed in a water bath preheated and stabilized at 37° C. After 10 min a buffer solution of 1×PBS (3 ml, preheated at 37° C.) containing 2.4% (w/w) of Tween 80 and 4% (w/w) of Cremophor EL was added to each sample vial containing a gelled drug/polymer solution. The drug release was determined by taking an aliquot of the medium from each sample vial at 1.5 h, 6 h and then daily for 10 days and analyzing the drug content of the sample by HPLC (mobile phase 1 ml/min 50/50 acetonitrile/deioned water, wavelength 227 nm, running time 15 min).
# [2] = Enhanced drug solubility in polymer gel (HPLC); settings: aqueous solution of Example 1 polymer (20% w/w); filtered 0.2 μm
# Protocol: In a 4 ml vial the polymer from EXAMPLE 1 (200 mg) and paclitaxel (2 mg) were dissolved in acetone (1·ml). The mixture was evaporated under vacuum for 16 h. Deionized water (0.8 ml) was added and the mixture was stirred at 4° C. for 24 h. The resulting solution was filtered through a 0.2 μm syringe filter to give a clear solution. An aliquot of the solution was diluted 100-fold with acetonitrile and analyzed for paclitaxel by HPLC (mobile phase: water/acetonitrile 1:1, 1 ml/min, injection volume: 20 μl, running time: 15 min, column: Waters Symmetry 300™ 4.6×250 mm, C18 5 μm, detector: Waters 2996).
# [3] = Doxorubicin release from copolymer aqueous gel; settings: 37° C.; 20% (w/w) copolymer gel; FIG. 3
# Protocol: Doxorubicin was used as a hydrophilic drug in a drug release study using the copolymer of EXAMPLE 1 in a 20% (w/w) aqueous solution. The drug (4 mg) was dissolved in 2 ml of the polymer solution. The drug/polymer solution was filtered through a 0.2 μm syringe and an aliquot of 0.5 ml of the solution was added to each sample vial. The triplet samples were placed in a water bath preheated and stabilized at 37° C. After 10 min a buffer solution of 1×PBS (1 ml, preheated at 37° C.) was added to each sample vial containing a gelled drug/polymer solution. The drug contents in the release media, which were removed and replaced with fresh PBS solutions at each sampling point, were determined at 1, 3, 6 h and then daily for 8 days by a spectrophotometer (SpecraMax M2 by Molecular Devices).
compound,measurement,setting,value
"CC(=O)O[C@H]1C(=O)[C@@]2(C)[C@H]([C@H](OC(=O)c3ccccc3)[C@]3(O)C[C@H](OC(=O)[C@H](O)[C@@H](NC(=O)c4ccccc4)c4ccccc4)C(C)=C1C3(C)C)[C@]1(OC(C)=O)CO[C@@H]1C[C@@H]2O [paclitaxel, Paclitaxel]",duration of controlled drug release from copolymer aqueous gel,[1],10 days
same,paclitaxel content in the aqueous solution,[2],6.4 mg/mL
"COc1cccc2c1C(=O)c1c(O)c3c(c(O)c1C2=O)C[C@@](O)(C(=O)CO)C[C@@H]3O[C@H]1C[C@H](N)[C@H](O)[C@H](C)O1 [doxorubicin, Doxorubicin]",duration of controlled drug release from copolymer aqueous gel,[3],8 days
